Results as given in patent US10815222B2, “Compounds for use in the treatment of kinetoplastid infection” (C.N.C.C.S. S.c.a.r.l. COLLEZIONE NAZIONALE DEI COMPOSTI …, priority 2016, dated 2020).
pEC50: −log10 of the molar value.

Test system: Bloodstream form of Trypanosoma brucei, strain Lister 427
Experiment: Trypanosoma brucei growth inhibition assay (CellTiter-Glo, 24 h)
Type: cell-based
Settings: Trypanosoma brucei; T. Brucei Growth Inibition Assay, class symbols; read-out: T. Brucei GI EC50
How it was run: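 Bloodstream-form T. brucei Lister 427, 1500 parasites per well in supplemented IMDM with 10% FBS, were exposed to compound (DMSO ≤0.25% final) for 24 h at 37 °C. Viability was measured by CellTiter-Glo luminescence.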

SMILES	pEC50
COc1nc2ccccc2cc1-c1cnc(C2CNCCN2C(=O)Cc2c(C)[nH]c3ccc(F)cc23)[nH]1 (centres unmarked) [2-(5-fluoro-2-methyl-1H-indol-3-yl)-1-(2-(5-(2-methoxyquinolin-3-yl)-1H-imidazol-2-yl)piperazin-1-yl)ethan-1-one]	5.30 to 6.00
COc1nc2ccccc2cc1-c1cnc(C2CS(=O)(=O)CCN2C(=O)Cc2c(C)[nH]c3ccc(F)cc23)[nH]1 (centres unmarked) [2-(5-fluoro-2-methyl-1H-indol-3-yl)-1-(3-(5-(2-methoxyquinolin-3-yl)-1H-imidazol-2-yl)-1,1-dioxidothiomorpholino)ethan-1-one]	6.30 to 7.00
COc1nc2ccccc2cc1-c1cnc(C2CN([S+]([O-])C(C)C)CCN2C(=O)Cc2c(C)[nH]c3ccc(F)cc23)[nH]1 (centres unmarked) [2-(5-fluoro-2-methyl-1H-indol-3-yl)-1-(4-(isopropylsulfinyl)-2-(5-(2-methoxyquinolin-3-yl)-1H-imidazol-2-yl)piperazin-1-yl)ethan-1-one]	5.30 to 6.00
COc1nc2ccccc2cc1-c1cnc(C2CCN(Cc3ccn(C)n3)CCN2C(=O)Cc2c(C)[nH]c3ccc(F)cc23)[nH]1 (centres unmarked) [2-(5-fluoro-2-methyl-1H-indol-3-yl)-1-(7-(5-(2-methoxyquinolin-3-yl)-1H-imidazol-2-yl)-4-((1-methyl-1H-pyrazol-3-yl)methyl)-1,4-diazepan-1-yl)ethan-1-one]	> 7.00
COc1ccc2c(c1)nc(C(F)(F)F)n2CC(=O)N1CCN(CC2CCOC2)C[C@H]1c1ncc(-c2cc3ccccc3nc2OC)[nH]1 (stereo partly drawn) [2-(5-methoxy-2-(trifluoromethyl)-1H-benzo[d]imidazol-1-yl)-1-((2S)-2-(5-(2-methoxyquinolin-3-yl)-1H-imidazol-2-yl)-4-((tetrahydrofuran-3-yl)methyl)piperazin-1-yl)ethan-1-one]	> 7.00
COc1ccc2[nH]c(C)c(CC(=O)N3CCCN(C)CC3c3ncc(-c4ccc5ccccc5c4)[nH]3)c2c1 (centres unmarked) [2-(5-methoxy-2-methyl-1H-indol-3-yl)-1-(4-methyl-2-(5-(naphthalen-2-yl)-1H-imidazol-2-yl)-1,4-diazepan-1-yl)ethan-1-one]	5.30 to 6.00
COc1ccc2[nH]c(C)c(CC(=O)N3CCN(C)CCC3c3ncc(-c4ccc5ccccc5c4)[nH]3)c2c1 (centres unmarked) [2-(5-methoxy-2-methyl-1H-indol-3-yl)-1-(4-methyl-7-(5-(naphthalen-2-yl)-1H-imidazol-2-yl)-1,4-diazepan-1-yl)ethan-1-one]	6.30 to 7.00
COc1ccc2[nH]c(C)c(CC(=O)N3CCN(Cc4ccn(C)n4)CCC3c3ncc(-c4cc5ccccc5nc4OC)[nH]3)c2c1 (centres unmarked) [2-(5-methoxy-2-methyl-1H-indol-3-yl)-1-(7-(5-(2-methoxyquinolin-3-yl)-1H-imidazol-2-yl)-4-((1-methyl-1H-pyrazol-3-yl)methyl)-1,4-diazepan-1-yl)ethan-1-one]	> 7.00
COc1ccc2nc(C(F)(F)F)n(CC(=O)N3CCCCC3c3ncc(-c4cc5ccccc5nc4OC)[nH]3)c2c1 (centres unmarked) [2-(6-methoxy-2-(trifluoromethyl)-1H-benzo[d]imidazol-1-yl)-1-(2-(5-(2-methoxyquinolin-3-yl)-1H-imidazol-2-yl)piperidin-1-yl)ethan-1-one]	> 7.00
COc1ccc2nc(C(F)(F)F)n(CC(=O)N3CCS(=O)(=O)CC3c3ncc(-c4cc5ccccc5nc4OC)[nH]3)c2c1 (centres unmarked) [2-(6-methoxy-2-(trifluoromethyl)-1H-benzo[d]imidazol-1-yl)-1-(3-(5-(2-methoxyquinolin-3-yl)-1H-imidazol-2-yl)-1,1-dioxidothiomorpholino)ethan-1-one]	6.30 to 7.00
COc1ccc2nc(C(F)(F)F)n(CC(=O)N3CCN(CCc4ccnn4C)CCC3c3ncc(-c4cc5ccccc5nc4OC)[nH]3)c2c1 (centres unmarked) [2-(6-methoxy-2-(trifluoromethyl)-1H-benzo[d]imidazol-1-yl)-1-(7-(5-(2-methoxyquinolin-3-yl)-1H-imidazol-2-yl)-4-(2-(1-methyl-1H-pyrazol-5-yl)ethyl)-1,4-diazepan-1-yl)ethan-1-one]	> 7.00
COc1ccc2nc(C(F)(F)F)n(CC(=O)N3CCN(CCc4ccccn4)CCC3c3ncc(-c4cc5ccccc5nc4OC)[nH]3)c2c1 (centres unmarked) [2-(6-methoxy-2-(trifluoromethyl)-1H-benzo[d]imidazol-1-yl)-1-(7-(5-(2-methoxyquinolin-3-yl)-1H-imidazol-2-yl)-4-(2-(pyridin-2-yl)ethyl)-1,4-diazepan-1-yl)-ethan-1-one]	6.30 to 7.00
COc1ccc2nc(C(F)(F)F)n(CC(=O)N3CCN(Cc4ccn(C)n4)CCC3c3ncc(-c4cc5ccccc5nc4OC)[nH]3)c2c1 (centres unmarked) [2-(6-methoxy-2-(trifluoromethyl)-1H-benzo[d]imidazol-1-yl)-1-(7-(5-(2-methoxyquinolin-3-yl)-1H-imidazol-2-yl)-4-((1-methyl-1H-pyrazol-3-yl)methyl)-1,4-diazepan-1-yl)ethan-1-one]	> 7.00
COc1ccc2nc(C(F)(F)F)n(CC(=O)N3CCN(CC4CCOC4)CCC3c3ncc(-c4cc5ccccc5nc4OC)[nH]3)c2c1 (centres unmarked) [2-(6-methoxy-2-(trifluoromethyl)-1H-benzo[d]imidazol-1-yl)-1-(7-(5-(2-methoxyquinolin-3-yl)-1H-imidazol-2-yl)-4-((tetrahydrofuran-3-yl)methyl)-1,4-diazepan-1-yl)ethan-1-one]	> 7.00
COc1ccc2nc(C(F)(F)F)n(CC(=O)N3CCN(Cc4ncco4)CCC3c3ncc(-c4cc5ccccc5nc4OC)[nH]3)c2c1 (centres unmarked) [2-(6-methoxy-2-(trifluoromethyl)-1H-benzo[d]imidazol-1-yl)-1-(7-(5-(2-methoxyquinolin-3-yl)-1H-imidazol-2-yl)-4-(oxazol-2-ylmethyl)-1,4-diazepan-1-yl)ethan-1-one]	> 7.00
COc1ccc2nc(C(F)(F)F)n(CC(=O)N3CCN(Cc4cocn4)CCC3c3ncc(-c4cc5ccccc5nc4OC)[nH]3)c2c1 (centres unmarked) [2-(6-methoxy-2-(trifluoromethyl)-1H-benzo[d]imidazol-1-yl)-1-(7-(5-(2-methoxyquinolin-3-yl)-1H-imidazol-2-yl)-4-(oxazol-4-ylmethyl)-1,4-diazepan-1-yl)ethan-1-one]	> 7.00
COc1ccc2nc(C(F)(F)F)n(CC(=O)N3CCN(Cc4cnccn4)CCC3c3ncc(-c4cc5ccccc5nc4OC)[nH]3)c2c1 (centres unmarked) [2-(6-methoxy-2-(trifluoromethyl)-1H-benzo[d]imidazol-1-yl)-1-(7-(5-(2-methoxyquinolin-3-yl)-1H-imidazol-2-yl)-4-(pyrazin-2-ylmethyl)-1,4-diazepan-1-yl)ethan-1-one]	> 7.00
COc1ccc2nc(C(F)(F)F)n(CC(=O)N3CCN(Cc4ccccn4)CCC3c3ncc(-c4cc5ccccc5nc4OC)[nH]3)c2c1 (centres unmarked) [2-(6-methoxy-2-(trifluoromethyl)-1H-benzo[d]imidazol-1-yl)-1-(7-(5-(2-methoxyquinolin-3-yl)-1H-imidazol-2-yl)-4-(pyridin-2-ylmethyl)-1,4-diazepan-1-yl)ethan-1-one]	> 7.00
COc1ccc2nc(C(F)(F)F)n(CC(=O)N3CCN(C4CCOCC4)CCC3c3ncc(-c4cc5ccccc5nc4OC)[nH]3)c2c1 (centres unmarked) [2-(6-methoxy-2-(trifluoromethyl)-1H-benzo[d]imidazol-1-yl)-1-(7-(5-(2-methoxyquinolin-3-yl)-1H-imidazol-2-yl)-4-(tetrahydro-2H-pyran-4-yl)-1,4-diazepan-1-yl)ethan-1-one]	> 7.00
COc1ccc2nc(C(F)(F)F)n(CC(=O)N3CCN(C4CCOC4)CCC3c3ncc(-c4cc5ccccc5nc4OC)[nH]3)c2c1 (centres unmarked) [2-(6-methoxy-2-(trifluoromethyl)-1H-benzo[d]imidazol-1-yl)-1-(7-(5-(2-methoxyquinolin-3-yl)-1H-imidazol-2-yl)-4-(tetrahydrofuran-3-yl)-1,4-diazepan-1-yl)ethan-1-one]	> 7.00
COc1ccc2nc(C(F)(F)F)n(CC(=O)N3CCN(Cc4nccs4)CCC3c3ncc(-c4cc5ccccc5nc4OC)[nH]3)c2c1 (centres unmarked) [2-(6-methoxy-2-(trifluoromethyl)-1H-benzo[d]imidazol-1-yl)-1-(7-(5-(2-methoxyquinolin-3-yl)-1H-imidazol-2-yl)-4-(thiazol-2-ylmethyl)-1,4-diazepan-1-yl)ethan-1-one]	> 7.00
COc1ccc2nc(C(F)(F)F)n(CC(=O)N3CCN(Cc4cscn4)CCC3c3ncc(-c4cc5ccccc5nc4OC)[nH]3)c2c1 (centres unmarked) [2-(6-methoxy-2-(trifluoromethyl)-1H-benzo[d]imidazol-1-yl)-1-(7-(5-(2-methoxyquinolin-3-yl)-1H-imidazol-2-yl)-4-(thiazol-4-ylmethyl)-1,4-diazepan-1-yl)ethan-1-one]	> 7.00
COc1ccc2nc(C(F)(F)F)n(CC(=O)N3CCN(CC4CCOC4)C[C@H]3c3noc(-c4cc5ccccc5nc4OC)n3)c2c1 (stereo partly drawn) [2-(6-methoxy-2-(trifluoromethyl)-1H-benzo[d]imidazol-1-yl)-1-((2S)-2-(5-(2-methoxyquinolin-3-yl)-1,2,4-oxadiazol-3-yl)-4-((tetrahydrofuran-3-yl)methyl)piperazin-1-yl)ethan-1-one]	5.30 to 6.00
COc1ccc2nc(C(F)(F)F)n(CC(=O)N3CCN(CC4CCOC4)C[C@H]3c3ncc(-c4cc5ccccc5nc4OC)[nH]3)c2c1 (stereo partly drawn) [2-(6-methoxy-2-(trifluoromethyl)-1H-benzo[d]imidazol-1-yl)-1-((2S)-2-(5-(2-methoxyquinolin-3-yl)-1H-imidazol-2-yl)-4-((tetrahydrofuran-3-yl)methyl)piperazin-1-yl)ethan-1-one]	> 7.00
COc1ccc2nc(C(F)(F)F)n(CC(=O)N3CCC(N(C)Cc4cnccn4)C[C@H]3c3ncc(-c4cc5ccccc5nc4OC)[nH]3)c2c1 (stereo partly drawn) [2-(6-methoxy-2-(trifluoromethyl)-1H-benzo[d]imidazol-1-yl)-1-((2S)-2-(5-(2-methoxyquinolin-3-yl)-1H-imidazol-2-yl)-4-(methyl(pyrazin-2-ylmethyl)amino)piperidin-1-yl)ethan-1-one]	> 7.00
COc1ccc2nc(C(F)(F)F)n(CC(=O)N3CCN(CC4CCOC4)C[C@H]3c3nnc(-c4cc5ccccc5nc4OC)[nH]3)c2c1 (stereo partly drawn) [2-(6-methoxy-2-(trifluoromethyl)-1H-benzo[d]imidazol-1-yl)-1-((2S)-2-(5-(2-methoxyquinolin-3-yl)-4H-1,2,4-triazol-3-yl)-4-((tetrahydrofuran-3-yl)methyl)piperazin-1-yl)ethan-1-one]	> 7.00
